Laboratory results published in US9090593B2, “Bicyclic compounds as Pim inhibitors” (AMGEN INC., priority 2010, dated 2015).
pIC50: −log10 of the molar value. Structures can show the parent of a compound that is named as a salt.

Assays:
[1] = molecular target: T1, full length recombinant Pim-2 protein (Homo sapiens, UniProt Q9P1W9); assay: Pim-2 enzyme assay (HTRF, phosphorylation of biotinylated-BAD (S112) peptide); assay type: biochemical; conditions: read-out: Pim2_IC50
T1 construct: by full length recombinant Pim-1, Pim-2, or Pim-3 protein; hexahistidine tag followed by a thrombin cleavage site (N); made in house; host or cells: Sf9 (baculovirus) or E. coli (pET28)
In short: (§1)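 Each full-length human Pim enzyme phosphorylates a biotinylated BAD (S112) peptide, and the product is sensed by Eu anti-phospho-BAD antibody with streptavidin-APC after quenching with 3 mM EDTA. Conditions: 60 mM Hepes pH 7.0, 0.05% BSA, 2 mM DTT.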

KMS-Cell = assay: KMS cell IC50 (Table 4); assay type: cell-based; conditions: KMS cells
[2] = molecular target: T2, full length recombinant Pim-1 protein (Homo sapiens, UniProt P11309); assay: Pim-1 enzyme assay (HTRF, phosphorylation of biotinylated-BAD (S112) peptide); assay type: biochemical; conditions: read-out: Pim_1_IC50
T2 construct: by full length recombinant Pim-1, Pim-2, or Pim-3 protein; hexahistidine tag followed by a thrombin cleavage site (N); made in house; host or cells: Sf9 (baculovirus) or E. coli (pET28)
In short: as §1

T2 sequence (P11309 whole entry): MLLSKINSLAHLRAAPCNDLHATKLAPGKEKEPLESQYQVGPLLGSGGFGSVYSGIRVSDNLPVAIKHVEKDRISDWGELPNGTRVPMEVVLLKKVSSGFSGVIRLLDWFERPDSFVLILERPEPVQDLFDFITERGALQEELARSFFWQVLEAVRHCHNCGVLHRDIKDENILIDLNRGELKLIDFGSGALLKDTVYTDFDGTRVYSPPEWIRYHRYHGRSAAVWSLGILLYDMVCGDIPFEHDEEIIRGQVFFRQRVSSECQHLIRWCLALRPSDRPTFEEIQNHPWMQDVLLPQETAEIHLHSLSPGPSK
T1 sequence (Q9P1W9 whole entry): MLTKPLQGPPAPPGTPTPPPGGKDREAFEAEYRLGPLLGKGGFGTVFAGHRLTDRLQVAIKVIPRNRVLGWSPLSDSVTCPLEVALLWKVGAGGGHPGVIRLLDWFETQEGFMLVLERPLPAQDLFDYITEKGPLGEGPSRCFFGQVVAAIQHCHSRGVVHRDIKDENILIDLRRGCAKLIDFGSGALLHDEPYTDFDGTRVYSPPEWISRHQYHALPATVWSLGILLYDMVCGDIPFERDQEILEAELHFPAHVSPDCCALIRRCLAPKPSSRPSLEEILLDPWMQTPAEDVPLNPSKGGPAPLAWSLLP

| SMILES | pIC50 [1] | pIC50 (KMS-Cell) | pIC50 [2] |
| --- | --- | --- | --- |
| CC(O)c1cccc(-c2ccc3[nH]cc(-c4cncc(O[C@@H]5CCCNC5)n4)c3c2)c1 (mixture of isomers) [Example 359] | 7.68 | 5.32 | 8.05 |
| O[C@@H]1CN(c2cncc(-c3n[nH]c4ccc(-c5c(F)cccc5F)cc34)n2)CC[C@@H]1O (racemic) [Example 248, cis-1-(6-(5-(2,6-difluorophenyl)-1H-indazol-3-yl)-2-pyrazinyl)-3,4-piperidinediol] | 7.37 | < 4.50 | 7.77 |
| Fc1cccc(F)c1-c1ccc2[nH]nc(-c3cncc(CC4CCCNC4)n3)c2c1 (racemic) [Example 272, 5-(2,6-difluorophenyl)-3-(6-(3-piperidinylmethyl)-2-pyrazinyl)-1H-indazole ditrifluoroacetate] | 7.27 | 4.89 | 7.89 |
| O=c1cc(-c2n[nH]c3ccc(-c4ccc(Cl)cc4F)cc23)nc(O[C@@H]2CNCC[C@H]2F)[nH]1 (racemic) [Example 283, 6-(5-(4-chloro-2-fluorophenyl)-1H-indazol-3-yl)-2-((trans-4-fluoropiperidin-3-yl)oxy)pyrimidin-4(3H)-one trifluoroacetate] | 9.00 | 5.72 | 8.70 |
| O=c1cc(-c2n[nH]c3ccc(-c4nccs4)cc23)nc(O[C@@H]2CNCC[C@H]2F)[nH]1 (racemic) [Example 289, 2-((trans-4-fluoropiperidin-3-yl)oxy)-6-(5-(thiazol-2-yl)-1H-indazol-3-yl)pyrimidin-4(3H)-one trifluoroacetate] | 9.00 | 5.45 | – |
| CC(c1ccc2[nH]nc(-c3cncc(O[C@H]4CNCCC45CC5)n3)c2c1)C(F)(F)F (single isomer, unassigned) [Example 259] | 8.22 | 5.55 | 7.89 |
| CC(c1ccc2[nH]nc(-c3cncc(O[C@H]4CNCCC45CC5)n3)c2c1)C(F)(F)F (single isomer, unassigned) [Example 260] | 8.30 | 5.66 | 8.05 |
| CC(C)C1CCNCC1Oc1cncc(-c2n[nH]c3ccc(-c4c(F)cccc4F)cc23)n1 (single isomer, unassigned) [Example 395] | 8.05 | 5.00 | 8.22 |
| O=C(NC1CC1)c1cccc(-c2ccc3[nH]nc(-c4cncc(O[C@H]5CNCCC56CC6)n4)c3c2)c1 [Example 247, 3-(3-(6-((4R)-6-azaspiro[25]oct-4-yloxy)-2-pyrazinyl)-1H-indazol-5-yl)-N-cyclopropylbenzamide] | 8.40 | 5.37 | 8.40 |
| CC(C)c1ccc2[nH]nc(-c3cncc(O[C@H]4CNCCC45CC5)n3)c2c1 [Example 253, 3-(6-((4R)-6-azaspiro[2.5]oct-4-yloxy)-2-pyrazinyl)-5-(1-methylethyl)-1H-indazole] | 8.05 | 5.25 | 8.05 |
| C=C(C)c1ccc2[nH]nc(-c3cncc(O[C@H]4CNCCC45CC5)n3)c2c1 [Example 256, 3-(6-((4R)-6-azaspiro[2.5]oct-4-yloxy)-2-pyrazinyl)-5-(1-methylethenyl)-1H-indazole] | 7.96 | 5.48 | 8.22 |
| C=C(c1ccc2[nH]nc(-c3cncc(O[C@H]4CNCCC45CC5)n3)c2c1)C(F)(F)F [Example 257, 3-(6-((4R)-6-azaspiro[2.5]oct-4-yloxy)-2-pyrazinyl)-5-(1-(trifluoromethyl)ethenyl)-1H-indazole] | 8.70 | 5.93 | 8.40 |
| CC(c1ccc2[nH]nc(-c3cncc(O[C@H]4CNCCC45CC5)n3)c2c1)C(F)(F)F (stereo partly drawn) [Example 258, 3-(6-((4R)-6-azaspiro[25]oct-4-yloxy)-2-pyrazinyl)-5-(2,2,2-trifluoro-1-methylethyl)-1H-indazole] | 8.22 | 5.50 | 8.05 |
| FC(F)(F)C1(c2ccc3[nH]nc(-c4cncc(O[C@H]5CNCCC56CC6)n4)c3c2)CC1 [Example 261, 3-(6-((4R)-6-azaspiro[2.5]oct-4-yloxy)-2-pyrazinyl)-5-(1-(trifluoromethyl)cyclopropyl)-1H-indazole] | 8.40 | 5.83 | 8.22 |
| CC1(c2ccc3[nH]nc(-c4cncc(O[C@H]5CNCCC56CC6)n4)c3c2)CC1 [Example 262, 3-(6-((4R)-6-azaspiro[2.5]oct-4-yloxy)-2-pyrazinyl)-5-(1-methylcyclopropyl)-1H-indazole] | 8.30 | 5.65 | 8.40 |
| COC(=O)c1ccc2[nH]nc(-c3cncc(O[C@H]4CNCCC45CC5)n3)c2c1 [Example 265, methyl 3-(6-((4R)-6-azaspiro[25]oct-4-yloxy)-2-pyrazinyl)-1H-indazole-5-carboxylate bis(2,2,2-trifluoroacetate)] | 7.46 | 5.24 | 8.05 |
| N#CCc1ccc2[nH]nc(-c3cncc(O[C@H]4CNCCC45CC5)n3)c2c1 [Example 269, (3-(6-((4R)-6-azaspiro[25]oct-4-yloxy)-2-pyrazinyl)-1H-indazol-5-yl)acetonitrile 2,2,2-trifluoroacetate] | 7.00 | 5.13 | 7.70 |
| c1cc(-c2ccc3[nH]cc(-c4cncc(O[C@@H]5CCCNC5)n4)c3c2)cc(-c2cc[nH]n2)c1 [Example 351] | 6.75 | < 4.50 | 7.70 |
| c1cc(-c2ccc3[nH]cc(-c4cncc(O[C@@H]5CCCNC5)n4)c3c2)cc(-c2nnn[nH]2)c1 [Example 355] | 6.98 | < 4.50 | 7.70 |
| c1cc(-c2ccc3[nH]cc(-c4cncc(O[C@@H]5CCCNC5)n4)c3c2)cc(-c2ccno2)c1 [Example 356] | 7.39 | 4.90 | 8.22 |
| Cc1nc(-c2cccc(-c3ccc4[nH]cc(-c5cncc(O[C@@H]6CCCNC6)n5)c4c3)c2)cs1 [Example 357] | 6.75 | < 4.50 | 7.89 |
| c1ccc(-c2ccc3[nH]cc(-c4cncc(O[C@@H]5CCCNC5)n4)c3c2)cc1 [Example 358] | 7.70 | 5.07 | 8.40 |
| CC[C@@H]1CCNC[C@H]1Oc1cncc(-c2n[nH]c3ccc(-c4c(F)cccc4F)cc23)n1 [Example 397] | 6.84 | 4.84 | 7.70 |

Now from value to compound:

| pIC50 [1] | pIC50 (KMS-Cell) | pIC50 [2] | SMILES |
| --- | --- | --- | --- |
| 7.43 | < 4.80 | 7.89 | Fc1cccc(F)c1-c1ccc2[nH]nc(-c3cncc(OC4C=CCNC4)n3)c2c1 (single isomer, unassigned) [Example 427] |
| 8.22 | 5.11 | 9.00 | Fc1cccc(F)c1-c1ccc2[nH]nc(-c3cncc(OC4CCNCC45CC5)n3)c2c1 (single isomer, unassigned) [Example 430] |
| 8.70 | 4.93 | 9.00 | Fc1cccc(F)c1-c1ccc2[nH]cc(-c3cncc(OC4CNCCC45CC5)n3)c2c1 (single isomer, unassigned) [Example 438] |
| 8.40 | 5.52 | 8.70 | CC1CNCC(Oc2cncc(-c3n[nH]c4ccc(-c5c(F)cccc5F)cc34)n2)C1 (single isomer, unassigned) [Example 469] |
| 7.68 | 5.68 | 7.70 | CC1CNCC(Oc2nc(O)cc(-c3n[nH]c4ccc(-c5c(F)cccc5F)cc34)n2)C1 (single isomer, unassigned) [Example 568] |
| 9.00 | 6.55 | 9.00 | CC1CNCC(Oc2nc(O)cc(-c3n[nH]c4ccc(-c5c(F)cccc5F)cc34)n2)C1 (single isomer, unassigned) [Example 569] |
| 7.92 | 4.97 | 8.05 | CC[C@H]1CCNC[C@@H]1Oc1cncc(-c2n[nH]c3ccc(-c4c(F)cccc4F)cc23)n1 [Example 398, 5-(2,6-difluorophenyl)-3-(6-(((3R,4S)-4-ethyl-3-piperidinyl)oxy)-2-pyrazinyl)-1H-indazole] |
| 9.00 | 5.89 | 9.00 | N#Cc1ccccc1-c1ccc2[nH]nc(-c3cncc(O[C@H]4CNCCC45CC5)n3)c2c1 [Example 408] |
| 9.00 | 5.57 | 9.00 | N#Cc1cccc(F)c1-c1ccc2[nH]nc(-c3cncc(O[C@H]4CNCCC45CC5)n3)c2c1 [Example 409] |
| 8.15 | 5.76 | 8.05 | N#Cc1ncccc1-c1ccc2[nH]nc(-c3cncc(O[C@H]4CNCCC45CC5)n3)c2c1 [Example 410] |
| 7.92 | 5.92 | 8.40 | N#Cc1ccncc1-c1ccc2[nH]nc(-c3cncc(O[C@H]4CNCCC45CC5)n3)c2c1 [Example 411] |
| 8.40 | 5.19 | 8.70 | Fc1ccc(F)c(-c2ccc3[nH]nc(-c4cncc(O[C@H]5CNCCC56CC6)n4)c3c2)c1 [Example 442] |
| 9.00 | 6.25 | – | CC(=O)Nc1ccc(-c2ccc3[nH]nc(-c4cncc(O[C@H]5CNCCC56CC6)n4)c3c2)c(F)c1 [Example 462] |
| 9.00 | 6.46 | – | Nc1ccc(-c2ccc3[nH]nc(-c4cncc(O[C@H]5CNCCC56CC6)n4)c3c2)c(F)n1 [Example 466] |
| 9.00 | 6.20 | – | O=c1cc(-c2n[nH]c3cc(F)c(-c4c(F)cccc4F)cc23)nc(O[C@H]2CNCC[C@@H]2F)[nH]1 [Example 544] |
| – | 6.51 | – | O=c1cc(-c2n[nH]c3ccc(-c4c(F)cccc4F)cc23)nc(OC2CNCCC2F)[nH]1 (stereo not drawn) [Example 555] |
